Measured values: US8053583B2, “Anti-cancer compound and manufacturing method thereof” (National Defense Medical Center, priority 2008, dated 2011)

Key:
[1] = tested on: SVG p12 (human brain astroglia) cells; experiment: MTT colorimetric assay, normal SVG p12 cells; conditions: conc. 10 μM, 46 hours with drug, then 2 hours MTT, ratio to control group without drug
Description: (§1) MTT (tetrazole) assay used to determine tumor viability is based on measurement of the activity of dehydrogenase to determine cell growth conditions. In live cells, dehydrogenase in active mitochondria converts yellow MTT [3-(4,5-dimethylthiazol-2-yl)-2,5-diphenyltetra zolium bromide] into purple formazan on the reductive cleavage of its tetrazolium ring. The formazan crystal is examined under the microscope. While the mitochondria in dead cells are without active dehydrogenase, no crystal is generated and the color remains yellow. After adding MTT into cell cultures and reacting for 2 hours, the amount of generated formazan precipitate is proportional to total amount of dehydrogenase. Removing the culture medium, add DMSO to dissolve the purple formazan precipitate. Then measure the absorbance of the precipitate by is measured by the spectrophotometer at 560/670 nm so as to learn inhibition effect of drugs acted on normal cells and tumor cells.
(§2) GBM 8401, GBM 8901 (human brain glioblastoma) and SVG p12 (human brain astroglia)cells line are selected to be used in 96 well petri dishes. Each well is filled into the same amount of cells-about 5000 cells per well. After being cultured for 24 hours and cells anchor/attach, the 96 wells are divided into two groups-an experimental group and a control group containing no samples. The samples are diluted into 10 μg/mL by culture medium. Take 200 μL of each sample and add into the experimental group and the control group is added with 200 μL culture medium without samples. After 46 hours of culture, each well is added with 10 μL MTT solution, incubate cells at 37° C., 5% CO2 for 2 hours.
(§3) Then each well is added with 100 μL, dissolving formazan. Shaking for 10 minutes and measure the absorbance at 560/670 nm of the sample by the spectrometer. The data of the experimental group is divided by the data of the control group to get the estimated cell viability.
(§4) Three cell lines-GBM 8401, GBM 8901, SVG p12 (normal) are used in cytotoxicity tests of 1,8-bis-substituted amidoanthraquinone. After reacting with the drug for 46 hours, the cells are reacted with certain amount of MTT solution. After 2 hours, DMSO is used to dissolve formazan and O.D. (optical density) at 560/670 nm is measured. Then calculate the radios of the experimental groups (with drugs) to the control groups (without drugs).

[2] = tested on: GBM 8901 (human brain glioblastoma) cells; experiment: MTT colorimetric assay, GBM 8901 cells; conditions: 46 hours with drug, then 2 hours MTT, ratio to control group without drug
Description: as §1, §2, §3, §4

[3] = tested on: GBM 8401 (human brain glioblastoma) cells; experiment: MTT colorimetric assay, GBM 8401 cells; conditions: conc. 10 μM; 46 hours with drug, then 2 hours MTT; ratio to control group without drug
Description: as §1, §2, §3, §4

| SMILES | Cell viability (%) SVG p12 [1] | viability at 10 µM ([2]; Homo sapiens, read-out: Cell viability (%) GBM 8901, conc. 10 μM) | Cell viability (%) GBM 8401 [3] | Cell viability (%) GBM 8901 ([2]; conc. 10 μM) |
| --- | --- | --- | --- | --- |
| COC(=O)[C@H](C)NCC(=O)Nc1cccc2c1C(=O)c1c(NC(=O)CN[C@H](C)C(=O)OC)cccc1C2=O [Compound 3h, (L)-1,8-Bis[2-(alalinemethyl ester)acetamido]anthraquinone] | 128 ± 34% | 100 ± 24% | 158 ± 3% | – |
| COC(=O)[C@H](NCC(=O)Nc1cccc2c1C(=O)c1c(NC(=O)CN[C@@H](C(=O)OC)C(C)C)cccc1C2=O)C(C)C [Compound 3e, (D)-1,8-Bis[2-(valinemethyl ester)acetamido]anthraquinone] | 138 ± 10% | – | 153 ± 32% | 88 ± 10% |
